Here are results for 16 compounds from patent US20150011566A1, “N-PHENYLPIPERAZINE DERIVATIVES THAT ARE ANTAGONISTS OF A1A, A1D ADRENOCEPTORS AND 5-HT1A RECEPTORS FOR THE TREATMENT OF BENIGN PROSTATE HYPERPLASIA, PHARMACEUTICAL COMPOSITIONS CONTAINING THE SAME” (UNIVERSIDADE FEDERAL DO RIO DE JANEIRO-UFRJ, priority 2012, published 2015).

For this experiment, the target named is T1, α1A adrenoceptors (Oryctolagus cuniculus, UniProt O02824).
T1 construct: from tissue; host or cells: rabbit liver membranes
T1 sequence (O02824 1-466): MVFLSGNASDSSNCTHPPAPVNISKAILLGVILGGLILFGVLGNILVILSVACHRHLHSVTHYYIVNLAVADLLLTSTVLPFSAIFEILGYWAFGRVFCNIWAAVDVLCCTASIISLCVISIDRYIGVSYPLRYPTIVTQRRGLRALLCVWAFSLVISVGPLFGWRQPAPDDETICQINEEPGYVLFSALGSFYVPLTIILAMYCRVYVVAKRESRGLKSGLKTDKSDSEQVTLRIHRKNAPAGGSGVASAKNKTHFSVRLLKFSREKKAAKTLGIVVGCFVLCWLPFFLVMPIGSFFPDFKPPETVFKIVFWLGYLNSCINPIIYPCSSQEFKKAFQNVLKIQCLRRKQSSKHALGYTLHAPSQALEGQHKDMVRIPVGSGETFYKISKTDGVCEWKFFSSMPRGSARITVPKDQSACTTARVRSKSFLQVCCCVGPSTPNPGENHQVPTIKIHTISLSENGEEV
Put plainly: Binding of [3H]-prazosin to α1A adrenoceptors (rabbit liver membranes). The method, then:
Following the protocol described previously in the literature, membrane preparations from rabbit liver homogenates were obtained. Such membrane preparations are enriched in adrenoceptor subtype α1A. The tissue obtained as described above (˜30 g) was naturally thawed, immersed in thawing solution (0.25 M sucrose, 1 mM EGTA and 5 mM Tris (pH 7.4)) freezing. Then, the tissue was transferred to a petri dish on ice containing solution for homogenizing liver (2 mM EDTA, 100 mM NaCl and 50 mM Tris (pH 7.4)) freezing. The liver was then carefully cut by ignoring the most fibrous part.
Then, the material was transferred into a beaker where with the aid of Ultra-Turrax homogenizer (speed 24,000 RPM), the tissue was homogenized with the same buffer solution at a ratio of 6 parts of the solution to 1 part material. The material was homogenized three times for 20 seconds; in the intervals the solution was allowed to stand for 1 minute on ice. Subsequently, the homogenate was subjected to centrifugation 10,000×g for 10 minutes at 4° C., yielding a supernatant which was subjected to ultracentrifugation 80,000×g for 40 minutes at 4° C. yielding a pellet. This pellet was resuspended in buffer solution without NaCl (1 mM EDTA and 50 mM Tris (pH 7.4)) and further subjected to ultracentrifugation in the same previous conditions. The pellet obtained was resuspended in this step storage solution (0.25 M sucrose, 1 mM EGTA and 5 mM Tris (pH 7.4)) with the aid of a manual type Dounce homogenizer and stored in aliquots at 300 μL liquid nitrogen. In all protocols for membrane preparations the dosage of protein were performed according to the method of LOWRY et al. (J. Biol. Chem. 193 (1):265-275, 1951).
The standardization of the assay was done as described in the literature. […] Assays were performed in triplicate.
In both assays, membrane preparations were incubated at 0° C. for 45 minutes. After the incubation period, the reaction was stopped by adding 4 mL of ice-cold wash buffer (50 mM Tris-HCl, pH 7.4) followed by rapid vacuum filtration on glass fiber filter (GMF 3 Filtrak®). The filters were washed four times with 4 ml of the same solution under vacuum to remove all free radioligand. Then the filters were dried and placed in vials containing 5 ml scintillation fluid (4% PPO, 0.1% POPOP w/v in toluene). The radioactivity retained on the filters was then determined in a liquid scintillation counter (Packard Tri-Carb 1600 TR).
This procedure aims to obtain a saturation curve with less expenditure of radioactive substances and biological materials. Since competition assays allow us to construct inhibition curves of specific binding of radioligand. The higher the concentration of competitor agent employed in this case the LDT's study, the greater the competition for specific receptors, decreasing the formation radioligand-receptor complex. This can be seen by the gradual decrease of radioactivity retained on the filters is detected by the counter liquid scintillation.
These values were converted to Ki values (competitive dissociation constant at equilibrium or inhibition constant) using the Cheng-Prusoff equation (Eq. 2).

The mark [1] stands for this setting: Table 5, Cheng-Prusoff, read-out: α1A Ki.

Where two headings read alike, the source gives them in different places.

On to `COc1ccccc1N1CCN(CCc2ccccc2)CC1` [LDT 2], for which the IC50 is 1.91e-08 M and the affinity, expressed as Ki, was 1.57e-08 M.

Turning to `COc1cccc(CCN2CCN(c3ccccc3OC)CC2)c1` [LDT 3], the IC50 is 5.62e-09 M and the Ki (as a rule, the equilibrium dissociation constant of an inhibitor or competing ligand from its target) stood at 4.63e-09 M.

On to `COc1ccc(CCN2CCN(c3ccccc3OC)CC2)cc1` [LDT 4], for which the IC50 is 1.07e-08 M and the affinity, expressed as Ki, was 8.81e-09 M.

`COc1ccc(CCN2CCN(c3ccccc3OC)CC2)cc1OC` [LDT 5] gave an IC50 of 4.47e-09 M and a Ki of 3.67e-09 M.

Take `COc1ccccc1N1CCN(CCC2CCCCC2)CC1` [LDT 6]: the Ki (Table 3, Cheng-Prusoff, read-out: Ki (M) High Affinity site) was 2.16e-09 M. Further, the IC50 (read-out: log CI50 ± EPM (M) High Affinity site (converted)) is 2.63e-09 M.

The compound `CCOc1ccccc1N1CCN(CCc2ccc3c(c2)OCO3)CC1` [LDT 8] had an IC50 of 4.57e-09 M and a Ki of 3.76e-09 M.

`CCN1CCN(c2ccccc2)CC1` [LDT 39]: under “Table 5”, the “α1A log IC50 (M)” value is −6.36 ± 0.21 M. For the same compound, under setting [1], the inhibition constant (Ki) amounted to 3.74e-07 M.

As to `CCN1CCN(c2ccccc2OC)CC1` [LDT 62], the “α1A log IC50 (M)” value (Table 5) is recorded as −6.51 ± 0.2 M. Also, under setting [1], the Ki worked out at 2.61e-07 M.

Take `CCCN1CCN(c2ccccc2OC)CC1` [LDT 63]: where the note is “Table 5”, the “α1A log IC50 (M)” value is on record as −6.50 ± 0.08 M. The Ki under setting [1] is 2.7e-07 M.

Turning to `CCCCN1CCN(c2ccccc2OC)CC1` [LDT 64], the “α1A log IC50 (M)” value (Table 5) was −6.84 ± 0.04 M. Under setting [1], the inhibition constant Ki was determined as 1.24e-07 M.

Turning to `CCCCCN1CCN(c2ccccc2OC)CC1` [LDT 65], the IC50 is 7.94e-08 M and the inhibitory constant (Ki) is 6.7e-08 M.

Consider `CCCCCCN1CCN(c2ccccc2OC)CC1` [LDT 66], for which the “α1A log IC50 (M)” value (Table 5) is −7.29 ± 0.11 a M. Under setting [1], the Ki turned out to be 4.3e-08 M.

On to `CCCCCCCN1CCN(c2ccccc2OC)CC1` [LDT 67], for which the “α1A log IC50 (M)” value (Table 5) was −7.02 ± 0.12 a M. For the same compound, the Ki under setting [1] was determined as 8.1e-08 M.

With `CCCCCCCCN1CCN(c2ccccc2OC)CC1` [LDT 68], the “α1A log IC50 (M)” value (Table 5) is −7.35 ± 0.2 a M. For the same compound, under setting [1], the Ki amounted to 3.8e-08 M.

For the compound `CCOc1ccccc1N1CCN(CC)CC1` [LDT 69], the “α1A log IC50 (M)” value (Table 5) was −7.41 ± 0.25 a M. For the same compound, the Ki under setting [1] amounted to 3.3e-08 M.

With `CCN1CCN(c2ccccc2O)CC1` [LDT 70], under “Table 5”, the “α1A log IC50 (M)” value was −6.45 ± 0.07 M. Also, the Ki under setting [1] was found to be 3.04e-07 M.
